US20100120690A1, “Polypeptides Having Antimicrobial Activity and Polynucleotides Encoding Same” (Novozymes Adenium Biotech A/S, priority 2005, published 2010)

Assays:
Type in all cases: cell-based
[1] = tested on: Staphylococcus aureus, ATCC 25923; experiment: MIC, NCCLS/CLSI guidelines (Example 5), strain B; conditions: relative to wildtype Plectasin; average of two independent experiments
Experimental: (§1) Plectasin wild-type (SEQ ID NO: 1) and several variants of Plectasin were expressed and purified. The Minimal Inhibitory Concentration (MIC) was determined to test for their antimicrobial activity following the NCCLS guidelines from CLSI (Clinical and Laboratory Standards Institute; formerly known as National Committee for Clinical and Laboratory Standards).
(§2) The peptides were tested against the following strains: • A: Staphylococcus aureus, ATCC 29213; • B: Staphylococcus aureus, ATCC 25923; • C: Staphylococcus aureus, ATCC 29737; • D: Staphylococcus aureus, MRSA ST5 (2001), multi-resistant clinical human isolate from Statens Serum Institut, Denmark; • E: Staphylococcus aureus, MRSA ST80 (2003), multi-resistant clinical human isolate from Statens Serum Institut, Denmark.
(§3) All MIC values represent an average of two independent experiments; and all results in Table 5 are expressed relative to wildtype Plectasin:
(§4) 0: >100% of Plectasin wildtype MIC; 1: 80-100% of Plectasin wildtype MIC; 2: 50-80% of Plectasin wildtype MIC; 3: <50% of Plectasin wildtype MIC.

[2] = tested on: panel of 6 different strains of Staphylococcus aureus; experiment: Average MIC, NCCLS/CLSI guidelines using caMHB (Example 6); conditions: average over 6 S. aureus strains, duplicate; MIC above 32 counted as 64; read after 18-24 hours at 37° C.
Experimental: A large number of antimicrobial peptides of the invention were tested against a panel of 6 different strains of Staphylococcus aureus listed below:
Staphylococcus aureus, ATCC29213, MSSA, NCCLS reference strain; Staphylococcus aureus, ATCC25923, MSSA, NCCLS reference strain; Staphylococcus aureus, ATCC29737, MSSA; Staphylococcus aureus, E33235, MSSA; Staphylococcus aureus, 698-01, MRSA ST5, Str, Kan, Oxa; Staphylococcus aureus, 566-03, MRSA ST80, Oxa, Tet, Fus, Kan.
The staphylococci were exposed to the following peptide concentrations: 32; 16; 8; 4; 2; 1; 0.5; 0.25; 0.13; […]; and 0.03 microgram/mL. All peptides were purified, HPLC quantified and the concentrated peptides (>160 micrograms/mL) were diluted to 160 micrograms/mL in peptide dilution buffer (0.1% BSA, 0.01% Acetic Acid).
The MIC determination was done essentially as described by NCCLS/CLSI guidelines using caMHB. The MICs were read after 18-24 hours of 37° C. incubations and recorded along with the CFU in the table below.
A total number of 95 antimicrobial peptides of the invention were evaluated in duplicate against the 6 bacterial strains described above.
In the majority of the double determinations (93%), the MIC varied <2 fold. An average MIC is tabulated below. If the MIC was above 32 micrograms/mL, a value of 64 was used to calculate the average.

[3] = tested on: Staphylococcus aureus, MRSA ST5 (2001); experiment: MIC, NCCLS/CLSI guidelines (Example 5), strain D; conditions: relative to wildtype Plectasin; average of two independent experiments
Experimental: as §1, §2, §3, §4

[4] = tested on: Staphylococcus aureus, ATCC 29213; experiment: MIC, NCCLS/CLSI guidelines (Example 5), strain A; conditions: relative to wildtype Plectasin; average of two independent experiments
Experimental: as §1, §2, §3, §4

[5] = tested on: Staphylococcus aureus, ATCC 29737; experiment: MIC, NCCLS/CLSI guidelines (Example 5), strain C; conditions: relative to wildtype Plectasin; average of two independent experiments
Experimental: as §1, §2, §3, §4

[6] = tested on: Staphylococcus aureus, MRSA ST80 (2003); experiment: MIC, NCCLS/CLSI guidelines (Example 5), strain E; conditions: relative to wildtype Plectasin; average of two independent experiments
Experimental: as §1, §2, §3, §4

[7] = tested on: Staphylococcus carnosus ATCC51365; experiment: Yeast screening assay: radial diffusion assay of yeast supernatants; design: key: An activity of 3 is better than Plectasin; An activity of 2 corresponds to the activity of Plectasin; 1 is worse than Plectasin; conditions: yeast supernatant, clearing zone in radial diffusion assay
Procedure, shortened: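 Activity scores (1 worse, 2 equal, 3 better than wild-type plectasin) come from the size of the radial-diffusion clearing zone against S. carnosus at 5×10^5 cfu/mL. Test samples were culture supernatants of yeast transformants induced with galactose for 3 days at 30 °C, and plates were developed at 37 °C with MTT.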

Substance | Relative MIC, strain B [1] | Average MIC [2] [micrograms/mL] | Relative MIC, strain D [3] | Relative MIC, strain A [4] | Relative MIC, strain C [5] | Relative MIC, strain E [6] | Activity (antimicrobial activity relative to the activity of plectasin) [7]
D9N + Q14H + K38R: variant of Plectasin (SEQ ID NO: 1) (GFGCNGPWNEDDMHCHNHCKSIKGYKGGYCAKGGFVCRCY) | 3 (<50% of Plectasin wildtype MIC) | 4 | 3 (<50% of Plectasin wildtype MIC) | 3 (<50% of Plectasin wildtype MIC) | 3 (<50% of Plectasin wildtype MIC) | 2 (50-80% of Plectasin wildtype MIC) | 
M13Y + Q14K + K26R: variant of Plectasin (SEQ ID NO: 1) (GFGCNGPWDEDDYKCHNHCKSIKGYRGGYCAKGGFVCKCY) | 3 (<50% of Plectasin wildtype MIC) | 5 | 3 (<50% of Plectasin wildtype MIC) | 2 (50-80% of Plectasin wildtype MIC) | 3 (<50% of Plectasin wildtype MIC) | 3 (<50% of Plectasin wildtype MIC) | 
D9S + Q14K + V36L: variant of Plectasin (SEQ ID NO: 1) (GFGCNGPWSEDDMKCHNHCKSIKGYKGGYCAKGGFLCKCY) | 3 (<50% of Plectasin wildtype MIC) | 1 | 3 (<50% of Plectasin wildtype MIC) | 3 (<50% of Plectasin wildtype MIC) | 3 (<50% of Plectasin wildtype MIC) | 3 (<50% of Plectasin wildtype MIC) | 
N5G + M13L: variant of Plectasin (SEQ ID NO: 1) (GFGCGGPWDEDDLQCHNHCKSIKGYKGGYCAKGGFVCKCY) | 3 (<50% of Plectasin wildtype MIC) | 4 | 3 (<50% of Plectasin wildtype MIC) | 2 (50-80% of Plectasin wildtype MIC) | 3 (<50% of Plectasin wildtype MIC) | 3 (<50% of Plectasin wildtype MIC) | 
N5S + D9S + M13V + N17R: variant of Plectasin (SEQ ID NO: 1) (GFGCSGPWSEDDVQCHRHCKSIKGYKGGYCAKGGFVCKCY) | 3 (<50% of Plectasin wildtype MIC) | 2 | 3 (<50% of Plectasin wildtype MIC) | 3 (<50% of Plectasin wildtype MIC) | 3 (<50% of Plectasin wildtype MIC) | 3 (<50% of Plectasin wildtype MIC) | 
D9S + M13L + Q14H: variant of Plectasin (SEQ ID NO: 1) (GFGCNGPWSEDDLHCHNHCKSIKGYKGGYCAKGGFVCKCY) | 3 (<50% of Plectasin wildtype MIC) | 3 | 3 (<50% of Plectasin wildtype MIC) | 3 (<50% of Plectasin wildtype MIC) | 3 (<50% of Plectasin wildtype MIC) | 3 (<50% of Plectasin wildtype MIC) | 
N5G + D9S + M13L + N17Q + A31T: variant of Plectasin (SEQ ID NO: 1) (GFGCGGPWSEDDLQCHQHCKSIKGYKGGYCTKGGFVCKCY) | 3 (<50% of Plectasin wildtype MIC) | 3 | 3 (<50% of Plectasin wildtype MIC) | 3 (<50% of Plectasin wildtype MIC) | 3 (<50% of Plectasin wildtype MIC) | 3 (<50% of Plectasin wildtype MIC) | 
D9S + Q14L + K26R: variant of Plectasin (SEQ ID NO: 1) (GFGCNGPWSEDDMLCHNHCKSIKGYRGGYCAKGGFVCKCY) | 3 (<50% of Plectasin wildtype MIC) | 3 | 3 (<50% of Plectasin wildtype MIC) | 3 (<50% of Plectasin wildtype MIC) | 3 (<50% of Plectasin wildtype MIC) | 3 (<50% of Plectasin wildtype MIC) | 
D9A + Q14H + K26R + V36L: variant of Plectasin (SEQ ID NO: 1) (GFGCNGPWAEDDMHCHNHCKSIKGYRGGYCAKGGFLCKCY) | 3 (<50% of Plectasin wildtype MIC) | 1 | 3 (<50% of Plectasin wildtype MIC) | 3 (<50% of Plectasin wildtype MIC) | 3 (<50% of Plectasin wildtype MIC) | 3 (<50% of Plectasin wildtype MIC) | 
M13T + Q14K + K26R: variant of Plectasin (SEQ ID NO: 1) (GFGCNGPWDEDDTKCHNHCKSIKGYRGGYCAKGGFVCKCY) | 3 (<50% of Plectasin wildtype MIC) | 7 | 2 (50-80% of Plectasin wildtype MIC) | 1 (80-100% of Plectasin wildtype MIC) | 3 (<50% of Plectasin wildtype MIC) | 0 (>100% of Plectasin wildtype MIC) | 
N5S + D9S + M13L + Q14R + N17V + A31S: variant of Plectasin (SEQ ID NO: 1) (GFGCSGPWSEDDLRCHVHCKSIKGYKGGYCSKGGFVCKCY) | 3 (<50% of Plectasin wildtype MIC) | 2 | 3 (<50% of Plectasin wildtype MIC) | 3 (<50% of Plectasin wildtype MIC) | 3 (<50% of Plectasin wildtype MIC) | 3 (<50% of Plectasin wildtype MIC) | 
D9A + K38R: variant of Plectasin (SEQ ID NO: 1) (GFGCNGPWAEDDMQCHNHCKSIKGYKGGYCAKGGFVCRCY) | 3 (<50% of Plectasin wildtype MIC) | 4 | 3 (<50% of Plectasin wildtype MIC) | 3 (<50% of Plectasin wildtype MIC) | 3 (<50% of Plectasin wildtype MIC) | 3 (<50% of Plectasin wildtype MIC) | 
GFGCNGPWDEDDMQCHNHCKSIKRYKGGYCAKGGFVCKCY [Mutation G24R] | 2 (50-80% of Plectasin wildtype MIC) | 8 | 2 (50-80% of Plectasin wildtype MIC) | 1 (80-100% of Plectasin wildtype MIC) |  | 2 (50-80% of Plectasin wildtype MIC) | 2
